Measurements: the OligoGym collection
Where “and” joins values, the source holds several entries; their conditions need not be identical. Equal values may be shown once. HELM strings list units from the 5' end as sugar, base in round brackets, then linkage (d deoxyribose, r ribose, m 2'-O-methyl, p phosphodiester). Methylation of C is not given here. [moe] = 2'-O-(2-methoxyethyl) (MOE); [cEt] = constrained ethyl (cEt); [sp] = phosphorothioate linkage

Biological target: HBV
Conditions: ASO

Substance | target mRNA inhibition (HepG2, 0.07 µM) | further results
RNA1{[moe](G)[sp].[moe](A)[sp].[moe](G)[sp].d(G)[sp].d(T)[sp].d(G)[sp].d(A)[sp].d(A)[sp].d(G)[sp].d(C)[sp].d(G)[sp].d(A)[sp].d(A)[sp].[cEt](G)[sp].[cEt](T)[sp].[cEt](G)}$$$$V2.0 | 67% and 57% | 
RNA1{[moe](G)[sp].[moe](A)[sp].d(A)[sp].d(G)[sp].d(T)[sp].d(C)[sp].d(C)[sp].d(A)[sp].d(C)[sp].d(C)[sp].d(A)[sp].[moe](C)[sp].[moe](G)[sp].[moe](A)[sp].[moe](G)[sp].[moe](T)[sp].[moe](C)}$$$$V2.0 | 66% and 49% | 
RNA1{[moe](A)[sp].[moe](A)[sp].[moe](G)[sp].[moe](A)[sp].[moe](T)[sp].[moe](G)[sp].d(A)[sp].d(G)[sp].d(G)[sp].d(C)[sp].d(A)[sp].d(T)[sp].d(A)[sp].d(G)[sp].d(C)[sp].[moe](A)[sp].[moe](G)}$$$$V2.0 | 65% and 41% | 
RNA1{[moe](A)[sp].[moe](G)[sp].[moe](G)[sp].d(T)[sp].d(G)[sp].d(A)[sp].d(A)[sp].d(G)[sp].d(C)[sp].d(G)[sp].d(A)[sp].d(A)[sp].d(G)[sp].[cEt](T)[sp].[cEt](G)[sp].[cEt](C)}$$$$V2.0 | 73% and 68% | 
RNA1{[moe](G)[sp].[moe](A)[sp].[moe](A)[sp].d(G)[sp].d(C)[sp].d(G)[sp].d(A)[sp].d(A)[sp].d(G)[sp].d(T)[sp].d(G)[sp].d(C)[sp].[moe](A)[sp].[moe](C)[sp].[moe](A)[sp].[moe](C)}$$$$V2.0 | 52% and 50% | 
RNA1{[moe](T)[sp].[moe](G)[sp].[moe](C)[sp].d(A)[sp].d(G)[sp].d(A)[sp].d(G)[sp].d(G)[sp].d(T)[sp].d(G)[sp].d(A)[sp].d(A)[sp].[moe](G)[sp].[moe](C)[sp].[moe](G)[sp].[moe](A)}$$$$V2.0 | 51% and 56% | 
RNA1{[moe](G)[sp].[moe](A)[sp].[moe](G)[sp].[moe](G)[sp].[moe](T)[sp].[moe](G)[sp].d(A)[sp].d(A)[sp].d(G)[sp].d(C)[sp].d(G)[sp].d(A)[sp].d(A)[sp].d(G)[sp].d(T)[sp].[moe](G)[sp].[moe](C)}$$$$V2.0 | 75% and 52% | 
RNA1{[moe](G)[sp].[moe](G)[sp].[moe](T)[sp].d(G)[sp].d(A)[sp].d(A)[sp].d(G)[sp].d(C)[sp].d(G)[sp].d(A)[sp].d(A)[sp].d(G)[sp].[moe](T)[sp].[moe](G)[sp].[moe](C)[sp].[moe](A)[sp].[moe](C)}$$$$V2.0 | 78% and 64% | 
RNA1{[moe](G)[sp].[cEt](A)[sp].d(G)[sp].d(T)[sp].d(T)[sp].d(C)[sp].d(C)[sp].d(G)[sp].d(C)[sp].d(A)[sp].d(G)[sp].d(T)[sp].[cEt](A)[sp].[moe](T)[sp].[cEt](G)[sp].[moe](G)}$$$$V2.0 | 75% and 68% | 
RNA1{[moe](A)[sp].[cEt](G)[sp].[cEt](T)[sp].d(C)[sp].d(C)[sp].d(A)[sp].d(C)[sp].d(C)[sp].d(A)[sp].d(C)[sp].d(G)[sp].d(A)[sp].d(G)[sp].[cEt](T)[sp].[cEt](C)[sp].[moe](T)}$$$$V2.0 | 62% and 45% | 
RNA1{[moe](A)[sp].[cEt](A)[sp].d(T)[sp].d(T)[sp].d(T)[sp].d(A)[sp].d(T)[sp].d(G)[sp].d(C)[sp].d(C)[sp].d(T)[sp].d(A)[sp].[cEt](C)[sp].[moe](A)[sp].[cEt](G)[sp].[moe](C)}$$$$V2.0 | 60% and 59% | 
RNA1{[moe](T)[sp].[moe](C)[sp].[moe](C)[sp].d(G)[sp].d(C)[sp].d(A)[sp].d(G)[sp].d(T)[sp].d(A)[sp].d(T)[sp].d(G)[sp].d(G)[sp].[moe](A)[sp].[moe](T)[sp].[moe](C)[sp].[moe](G)[sp].[moe](G)}$$$$V2.0 | 68% and 58% | 
RNA1{[moe](A)[sp].[moe](C)[sp].[moe](T)[sp].d(G)[sp].d(G)[sp].d(A)[sp].d(G)[sp].d(C)[sp].d(C)[sp].d(A)[sp].d(C)[sp].d(C)[sp].[moe](A)[sp].[moe](G)[sp].[moe](C)[sp].[moe](A)}$$$$V2.0 | 53% and 72% | target mRNA inhibition (HepG2, 0.0092593 µM): 4%; target mRNA inhibition (HepG2, 0.0277778 µM): 23%; target mRNA inhibition (HepG2, 0.0833333 µM): 46%; target mRNA inhibition (HepG2, 0.25 µM): 56%
RNA1{[moe](T)[sp].[moe](G)[sp].[moe](A)[sp].[cEt](G)[sp].d(G)[sp].d(C)[sp].d(A)[sp].d(T)[sp].d(A)[sp].d(G)[sp].d(C)[sp].d(A)[sp].d(G)[sp].[cEt](C)[sp].[moe](A)[sp].[moe](G)[sp].[moe](G)}$$$$V2.0 |  | target mRNA inhibition (HepG2, 0.009375 µM): 6%; target mRNA inhibition (HepG2, 0.01875 µM): 31%; target mRNA inhibition (HepG2, 0.0375 µM): 42%; target mRNA inhibition (HepG2, 0.075 µM): 58%; target mRNA inhibition (HepG2, 0.15 µM): 66%; target mRNA inhibition (HepG2, 0.3 µM): 82%
RNA1{[moe](A)[sp].[moe](G)[sp].[moe](A)[sp].d(G)[sp].d(A)[sp].d(A)[sp].d(G)[sp].d(T)[sp].d(C)[sp].d(C)[sp].d(A)[sp].d(C)[sp].[moe](C)[sp].[moe](A)[sp].[moe](C)[sp].[moe](G)[sp].[moe](A)}$$$$V2.0 | 59% and 56% | 
RNA1{[moe](A)[sp].[moe](T)[sp].[moe](G)[sp].[moe](A)[sp].[moe](G)[sp].[moe](G)[sp].d(C)[sp].d(A)[sp].d(T)[sp].d(A)[sp].d(G)[sp].d(C)[sp].d(A)[sp].d(G)[sp].d(C)[sp].[moe](A)[sp].[moe](G)}$$$$V2.0 | 55% and 51% | 
RNA1{[moe](T)[sp].[moe](T)[sp].[moe](A)[sp].[moe](T)[sp].d(G)[sp].d(C)[sp].d(C)[sp].d(T)[sp].d(A)[sp].d(C)[sp].d(A)[sp].d(G)[sp].d(C)[sp].[moe](C)[sp].[moe](T)[sp].[moe](C)[sp].[moe](C)}$$$$V2.0 | 52% and 34% | 
RNA1{[moe](C)[sp].[cEt](C)[sp].[cEt](A)[sp].d(C)[sp].d(G)[sp].d(A)[sp].d(G)[sp].d(T)[sp].d(C)[sp].d(T)[sp].d(A)[sp].d(G)[sp].d(A)[sp].[cEt](C)[sp].[cEt](T)[sp].[moe](C)}$$$$V2.0 | 0% | 
RNA1{[moe](G)[sp].[cEt](G)[sp].[cEt](C)[sp].d(A)[sp].d(G)[sp].d(A)[sp].d(G)[sp].d(G)[sp].d(T)[sp].d(G)[sp].d(A)[sp].d(A)[sp].d(A)[sp].[cEt](A)[sp].[cEt](A)[sp].[moe](G)}$$$$V2.0 | 50% and 49% | 
RNA1{[moe](G)[sp].[moe](G)[sp].[moe](T)[sp].[moe](G)[sp].d(A)[sp].d(A)[sp].d(G)[sp].d(C)[sp].d(G)[sp].d(A)[sp].d(A)[sp].d(G)[sp].d(T)[sp].[moe](G)[sp].[moe](C)[sp].[moe](A)[sp].[moe](C)}$$$$V2.0 | 63% and 59% | 
RNA1{[moe](C)[sp].[moe](A)[sp].[moe](C)[sp].d(T)[sp].d(A)[sp].d(G)[sp].d(T)[sp].d(A)[sp].d(A)[sp].d(A)[sp].d(C)[sp].d(T)[sp].[moe](G)[sp].[moe](A)[sp].[moe](G)[sp].[moe](C)}$$$$V2.0 | 14% and 4% | 
RNA1{[moe](G)[sp].[moe](G)[sp].d(A)[sp].d(G)[sp].d(T)[sp].d(T)[sp].d(C)[sp].d(C)[sp].d(G)[sp].d(C)[sp].d(A)[sp].[moe](G)[sp].[moe](T)[sp].[moe](A)[sp].[moe](T)[sp].[moe](G)[sp].[moe](G)}$$$$V2.0 | 88% and 78% | 
RNA1{[moe](G)[sp].[moe](A)[sp].[moe](A)[sp].d(C)[sp].d(C)[sp].d(A)[sp].d(C)[sp].d(T)[sp].d(G)[sp].d(A)[sp].d(A)[sp].d(C)[sp].[moe](A)[sp].[moe](A)[sp].[moe](A)[sp].[moe](T)[sp].[moe](G)}$$$$V2.0 | 39% and 47% | 
RNA1{[moe](C)[sp].[cEt](C)[sp].[cEt](A)[sp].d(A)[sp].d(G)[sp].d(G)[sp].d(C)[sp].d(A)[sp].d(C)[sp].d(A)[sp].d(G)[sp].d(C)[sp].d(T)[sp].[cEt](T)[sp].[cEt](G)[sp].[moe](G)}$$$$V2.0 | 1% and 0% | 
RNA1{[moe](G)[sp].[cEt](A)[sp].[cEt](A)[sp].d(G)[sp].d(C)[sp].d(G)[sp].d(A)[sp].d(A)[sp].d(G)[sp].d(T)[sp].d(G)[sp].d(C)[sp].d(A)[sp].[cEt](C)[sp].[cEt](A)[sp].[moe](C)}$$$$V2.0 | 75% and 78% | 
RNA1{[moe](A)[sp].[moe](C)[sp].[moe](T)[sp].d(A)[sp].d(G)[sp].d(T)[sp].d(A)[sp].d(A)[sp].d(A)[sp].d(C)[sp].d(T)[sp].d(G)[sp].[moe](A)[sp].[moe](G)[sp].[moe](C)[sp].[moe](C)[sp].[moe](A)}$$$$V2.0 | 66% and 67% | 
RNA1{[moe](T)[sp].[moe](C)[sp].[moe](C)[sp].d(A)[sp].d(C)[sp].d(C)[sp].d(A)[sp].d(C)[sp].d(G)[sp].d(A)[sp].d(G)[sp].d(T)[sp].d(C)[sp].[cEt](T)[sp].[cEt](A)[sp].[cEt](G)}$$$$V2.0 | 42% and 67% | 
RNA1{[moe](G)[sp].[moe](A)[sp].[moe](G)[sp].[moe](T)[sp].[moe](T)[sp].d(C)[sp].d(C)[sp].d(G)[sp].d(C)[sp].d(A)[sp].d(G)[sp].d(T)[sp].d(A)[sp].d(T)[sp].[moe](G)[sp].[moe](G)[sp].[moe](A)}$$$$V2.0 | 75% and 56% | 
RNA1{[moe](A)[sp].[moe](A)[sp].[moe](G)[sp].[moe](C)[sp].[moe](G)[sp].d(A)[sp].d(A)[sp].d(G)[sp].d(T)[sp].d(G)[sp].d(C)[sp].d(A)[sp].d(C)[sp].d(A)[sp].[moe](C)[sp].[moe](G)[sp].[moe](G)}$$$$V2.0 | 77% and 76% | target mRNA inhibition (HepG2, 0.0092593 µM): 8%; target mRNA inhibition (HepG2, 0.0277778 µM): 26%; target mRNA inhibition (HepG2, 0.0833333 µM): 62%; target mRNA inhibition (HepG2, 0.25 µM): 85%
RNA1{[moe](G)[sp].[cEt](A)[sp].[cEt](A)[sp].d(C)[sp].d(T)[sp].d(G)[sp].d(G)[sp].d(A)[sp].d(G)[sp].d(C)[sp].d(C)[sp].d(A)[sp].d(C)[sp].[cEt](C)[sp].[cEt](A)[sp].[moe](G)}$$$$V2.0 | 65% and 51% | 
